Our source for the ED50 and IC50 values is ChEMBL document CHEMBL1148225, “Discovery and SAR of trisubstituted thiazolidinones as CCR4 antagonists” (Bioorg Med Chem Lett, 2004).

Molecules are shown by their SMILES.

The first assay addresses T1, C-C chemokine receptor type 4 (Homo sapiens) (UniProt P51679).
T1 sequence (whole entry): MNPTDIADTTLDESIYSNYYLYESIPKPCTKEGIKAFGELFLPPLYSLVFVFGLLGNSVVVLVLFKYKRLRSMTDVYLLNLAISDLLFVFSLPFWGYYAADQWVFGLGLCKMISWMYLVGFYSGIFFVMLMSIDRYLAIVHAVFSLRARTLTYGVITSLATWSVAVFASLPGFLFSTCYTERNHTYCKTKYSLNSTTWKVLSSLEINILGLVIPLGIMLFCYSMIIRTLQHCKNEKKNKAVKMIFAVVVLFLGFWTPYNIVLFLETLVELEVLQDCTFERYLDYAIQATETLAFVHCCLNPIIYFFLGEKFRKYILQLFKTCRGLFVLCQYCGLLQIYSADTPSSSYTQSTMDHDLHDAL
Description: Dose required to inhibit TARC-stimulated chemotaxis in CCR4+ Th2 cell lines derived from primary human T-cells. In kind it is functional, cell-based.
`C[C@@H](NC(=O)C[C@H]1S[C@H](c2ccc(Cl)cc2Cl)N(CC(=O)NCCCN2CCCCC2)C1=O)c1cccc2ccccc12` registered an ED50 of 0.3 µM.

For a further assay, the target named is T2, C-C chemokine receptor type 4 (Homo sapiens, UniProt P51679).
T2 sequence (P51679 whole entry): T1 sequence (whole entry)
Put plainly: Inhibition of [125I]MDC binding to recombinant human C-C chemokine receptor type 4 (CCR4) expressed in murine pre-B cells. It counts as cell-based.
With `C[C@@H](NC(=O)C[C@H]1S[C@H](c2ccc(Cl)cc2Cl)N(CC(=O)NCCCN2CCCCC2)C1=O)c1cccc2ccccc12`, the IC50 (commonly the concentration that gives 50% inhibition) came out at 0.11 µM. Consider `COc1ccc(CNC(=O)C[C@H]2S[C@H](c3ccc(Cl)cc3Cl)N(CC(=O)NCCCN3CCOCC3)C2=O)c(OC)c1OC`, for which the IC50 turned out to be 11 µM. As to `O=C(C[C@H]1S[C@H](c2c(Cl)cccc2Cl)N(CC(=O)NCCCN2CCOCC2)C1=O)NCc1cccc2ccccc12`, the 50% inhibitory concentration (IC50) amounted to 8 µM. As for `O=C(CN1C(=O)[C@@H](CC(=O)NC2CCCCC2)S[C@@H]1c1ccc(Cl)cc1Cl)NCCCN1CCOCC1`, the IC50 stood at 7 µM. On the same count and under the same terms, to `O=C(C[C@H]1S[C@H](c2ccc(Cl)cc2Cl)N(CC(=O)NCCCN2CCOCC2)C1=O)NCc1cccc(Cl)c1Cl` belongs 0.79 µM; to `O=C(C[C@H]1S[C@H](CCc2ccccc2)N(CC(=O)NCCCN2CCOCC2)C1=O)NCc1cccc2ccccc12`, 100 µM; to `O=C(C[C@H]1S[C@H](c2ccc(Cl)cc2Cl)N(CC(=O)NCCCN2CCOCC2)C1=O)NCc1cccc(-c2ccccc2)c1`, 1.3 µM. Still for that read-out and setting: to `O=C(C[C@H]1S[C@H](c2ccc(Cl)cc2Cl)N(CC(=O)NCCCCN2CCOCC2)C1=O)NCc1cccc2ccccc12` belongs 0.38 µM.

As to `CN(C)CC(=O)NCCN1C(=O)[C@@H](CC(=O)NCc2cccc3ccccc23)S[C@@H]1c1ccc(Cl)cc1Cl`, the IC50 was 11 µM. The same measure, in the same setting: in the case of `O=C(C[C@H]1S[C@H](c2cccs2)N(CC(=O)NCCCN2CCOCC2)C1=O)NCc1cccc2ccccc12` it was 33 µM. As for `CN(C)CCN1C(=O)[C@@H](CC(=O)NCc2cccc3ccccc23)S[C@@H]1c1ccc(Cl)cc1Cl`, the half-inhibitory concentration (IC50) was 36 µM. Take `O=C(C[C@H]1S[C@H](c2ccc(Cl)cc2Cl)N(Cc2cccc(CN3CCOCC3)c2)C1=O)NCc1cccc2ccccc12`: the IC50 came to 100 µM. On the same count and under the same terms, to `O=C(CN1C(=O)[C@@H](CC(=O)N[C@@H]2CCc3ccccc32)S[C@@H]1c1ccc(Cl)cc1Cl)NCCCN1CCOCC1` belongs 2.9 µM; to `O=C(C[C@H]1S[C@H](c2ccc(Cl)cc2Cl)N(CC(=O)N2CCC(N3CCCC3)CC2)C1=O)NCc1cccc2ccccc12`, 0.6 µM. For `O=C(C[C@H]1S[C@H](c2cccc(Cl)c2)N(CC(=O)NCCCN2CCOCC2)C1=O)NCc1cccc2ccccc12`, the IC50 worked out at 7 µM. The same measure, in the same setting: in the case of `C[C@@H](NC(=O)C[C@H]1S[C@H](c2ccc(Cl)cc2Cl)N(CC(=O)NCCCN2CCOCC2)C1=O)c1ccccc1` (stereo in doubt) it was 8 µM; in that of `O=C(C[C@H]1S[C@H](c2ccc(Cl)cc2Cl)N(CC(=O)NCCCN2CCOCC2)C1=O)NCCc1ccc(Cl)c(Cl)c1`, 13 µM. Turning to `O=C(C[C@H]1S[C@H](c2ccc(Cl)cc2Cl)N(CC(=O)NCCN2CCOCC2)C1=O)NCc1cccc2ccccc12`, the IC50 was determined as 3.5 µM. Take `O=C(C[C@H]1S[C@H](c2ccc(Cl)cc2Cl)N(CC(=O)NCCCN2CCOCC2)C1=O)NCc1cc(Cl)cc(Cl)c1`: the IC50 stood at 1.5 µM.

Turning to `C[C@@H](NC(=O)C[C@H]1S[C@H](c2ccc(Cl)cc2Cl)N(CC(=O)NCCCN2CCOCC2)C1=O)c1cccc2ccccc12`, the IC50 amounted to 0.25 µM.

As to `O=C(C[C@H]1S[C@H](c2ccc(Cl)cc2Cl)N(CCC(=O)N2CCNCC2)C1=O)NCc1cccc2ccccc12`, the IC50 was 3.5 µM. The same measure, in the same setting: in the case of `O=C(C[C@H]1S[C@H](c2ccc(Cl)cc2Cl)N(CC(=O)N2CCC(N3CCCCC3)CC2)C1=O)NCc1cccc2ccccc12` it was 0.33 µM; in that of `O=C(C[C@H]1S[C@H](c2ccc(Cl)cc2Cl)N(CCCN2CCOCC2)C1=O)NCc1cccc2ccccc12`, 33 µM; in that of `O=C(C[C@H]1S[C@H](c2ccc(F)cc2)N(CC(=O)NCCCN2CCOCC2)C1=O)NCc1cccc2ccccc12`, 4 µM.

The target of a further assay is T2, C-C chemokine receptor type 4. Description: Inhibitory activity against [125I]MDC binding to human Chemokine receptor type 4 expressed in murine pre-B cells. In kind it is cell-based.
As to `O=C(C[C@H]1S[C@H](c2ccc(C(F)(F)F)cc2C(F)(F)F)N(CC(=O)NCCCN2CCOCC2)C1=O)NCc1cccc2ccccc12`, the IC50 was greater than 100 µM.
